Measured values reported in patent US11161856B2 (H. Lundbeck A/S, priority 2017, dated 2021).

Assays:
Assay type in all cases: biochemical
MAGL = molecular target: T1, MAGL (Homo sapiens, UniProt Q99685); assay: In vitro competitive activity-based protein profiling (FP-Rh or HT-01 probe, gel-based); parameters: IC50 MGLL PC3 (Human, μM) / IC50 MGLL PFC (Human, μM): scale not given here; conditions: for % Inh MGLL PFC (Human, μM) / IC50 MGLL PFC (Human, μM): prefrontal cortex (PFC) proteome; for % Inh MGLL PFC (Human, μM) / % Inh MGLL PC3 (Human, μM): concentration not given (μM); for IC50 MGLL PC3 (Human, μM) / % Inh MGLL PC3 (Human, μM): PC3 cell proteome
T1 construct: Proteomes (human prefrontal cortex or cell membrane fractions); from tissue
T1 sequence (Q99685 1-303): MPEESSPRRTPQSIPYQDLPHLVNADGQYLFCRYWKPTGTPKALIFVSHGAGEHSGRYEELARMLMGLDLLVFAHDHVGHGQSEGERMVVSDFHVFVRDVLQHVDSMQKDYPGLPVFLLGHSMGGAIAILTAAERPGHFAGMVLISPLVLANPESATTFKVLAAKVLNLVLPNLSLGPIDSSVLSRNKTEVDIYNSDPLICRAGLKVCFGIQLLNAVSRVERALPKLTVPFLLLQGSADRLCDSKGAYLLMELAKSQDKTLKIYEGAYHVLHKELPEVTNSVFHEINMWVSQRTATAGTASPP
How it was run: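 Human prefrontal cortex or cell membrane proteomes (1.0 mg/mL total protein) were preincubated with varying inhibitor concentrations for 30 min at 37° C. FP-Rh or HT-01 probe (50 μM DMSO stock) was then added for 30 min at room temperature, and samples were quenched in SDS loading buffer and resolved by SDS-PAGE.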

MGLL = molecular target: T2, MGLL (Mus musculus, UniProt O35678); assay: In vitro competitive activity-based protein profiling, mouse brain proteome (MGLL); parameters: IC50 MGLL Brain (Mouse, μM): scale not given here; conditions: for % Inh MGLL Brain (Mouse, μM): concentration not given (μM)
T2 construct: Brain; from tissue; host or cells: mouse brain proteome
T2 sequence (O35678 1-303): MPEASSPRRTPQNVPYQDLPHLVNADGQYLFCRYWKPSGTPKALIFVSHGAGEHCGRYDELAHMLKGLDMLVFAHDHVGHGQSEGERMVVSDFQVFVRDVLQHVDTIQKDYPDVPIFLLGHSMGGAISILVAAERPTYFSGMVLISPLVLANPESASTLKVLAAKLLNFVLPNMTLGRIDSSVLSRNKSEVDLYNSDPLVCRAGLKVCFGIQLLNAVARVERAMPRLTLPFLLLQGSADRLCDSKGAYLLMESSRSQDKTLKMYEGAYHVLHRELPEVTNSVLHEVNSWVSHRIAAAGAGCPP

ABHD6 = molecular target: T3, ABHD6 (Mus musculus, UniProt Q8R2Y0); assay: In vitro competitive activity-based protein profiling, mouse brain proteome (ABHD6); conditions: mouse brain proteome; concentration not given (μM)
T3 construct: Brain; from tissue; host or cells: mouse brain proteome
T3 sequence (Q8R2Y0 1-336): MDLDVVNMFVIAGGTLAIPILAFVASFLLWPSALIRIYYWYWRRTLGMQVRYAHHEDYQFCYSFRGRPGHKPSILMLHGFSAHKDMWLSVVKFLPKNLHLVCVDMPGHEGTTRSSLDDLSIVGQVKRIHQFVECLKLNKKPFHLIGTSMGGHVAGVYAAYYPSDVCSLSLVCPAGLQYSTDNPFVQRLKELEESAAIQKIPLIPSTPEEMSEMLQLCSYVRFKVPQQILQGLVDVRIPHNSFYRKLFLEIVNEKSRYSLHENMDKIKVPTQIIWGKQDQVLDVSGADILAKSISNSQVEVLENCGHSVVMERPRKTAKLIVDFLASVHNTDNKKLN
Procedure: [The source words this procedure for another target and reports this target under the same test.] In Vitro Competitive Activity-Based Protein Profiling.
Proteomes (human prefrontal cortex or cell membrane fractions) (50 μL, 1.0 mg/mL total protein concentration) were preincubated with varying concentrations of inhibitors at 37° C. After 30 min, FP-Rh or HT-01 (1.0 μL, 50 μM in DMSO) was added and the mixture was incubated for another 30 min at room temperature. Reactions were quenched with SDS loading buffer (15 μL-4×) and run on SDS-PAGE.

% Inh MGLL PFC (Human, μM) (MAGL) | % Inh MGLL Brain (Mouse, μM) (MGLL) | % Inh ABHD6 Brain (Mouse, μM) (ABHD6) | IC50 MGLL PC3 (Human, μM) (MAGL) | % Inh MGLL PC3 (Human, μM) (MAGL) | IC50 MGLL PFC (Human, μM) (MAGL) | IC50 MGLL Brain (Mouse, μM) (MGLL) | Compound
### (### is ≥75%) | ### (### is ≥75%) | ### (### is ≥75%) | – | – | – | – | O=C(O)[C@H]1CCCN(c2cc(C(F)(F)F)ccc2CN2CC3(CCN(C(=O)OC(C(F)(F)F)C(F)(F)F)CC3)C2)C1 [Example 111, (S)-1-(2-((7-(((1,1,1,3,3,3-hexafluoropropan-2-yl)oxy)carbonyl)-2,7-diazaspiro[3,5]nonan-2-yl)methyl)-5-(trifluoromethyl)phenyl) piperidine-3-carboxylic acid]
### (### is ≥75%) | ### (### is ≥75%) | ### (### is ≥75%) | – | – | – | – | O=C(O)CN1CC2CC1CN2c1cc(C(F)(F)F)ccc1CN1CC2(CCN(C(=O)OC(C(F)(F)F)C(F)(F)F)CC2)C1 (stereo not shown) [Example 127, 2-(5-{2-[(7-{[(1,1,1,3,3,3-Hexafluoropropan-2-yl)oxy]carbonyl}-2,7-diazaspiro[3.5]nonan-2-yl)methyl]-5-(trifluoromethyl)phenyl}-2,5-diazabicyclo[2.2.1]heptan-2-yl)acetic acid]
### (### is ≥75%) | ### (### is ≥75%) | ### (### is ≥75%) | – | – | – | – | O=C(O)[C@@H]1CCCN(c2cc(CN3CC4(CCN(C(=O)OC(C(F)(F)F)C(F)(F)F)CC4)C3)cc(C(F)(F)F)c2)C1 [Example 105, (R)-1-(3-((7-(((1,1,1,3,3,3-Hexafluoropropan-2-yl)oxy)carbonyl)-2,7-diazaspiro[3,5]nonan-2-yl)methyl)-5-(trifluoromethyl)phenyl) piperidine-3-carboxylic acid]
– | ### (### is ≥75%) | # (# is ≤25%) | * * * | ### (### is ≥75%) | * * * | * * * | O=C(O)CN1CCN(c2cc(C(F)(F)F)ccc2CN2CCCC23CCN(C(=O)OC(C(F)(F)F)C(F)(F)F)CC3)CC1 [Example 3, 2-(4-(2-((8-(((1,1,1,3,3,3-Hexafluoropropan-2-yl)oxy)carbonyl)-1,8-diazaspiro[4.5]decan-1-yl)methyl)-5-(trifluoromethyl)phenyl)piperazin-1-yl)acetic acid]
### (### is ≥75%) | ### (### is ≥75%) | ### (### is ≥75%) | * * * | – | – | – | CC1(C(=O)O)CN(c2cc(CN3CC4(CCN(C(=O)OC(C(F)(F)F)C(F)(F)F)CC4)C3)cc(C(F)(F)F)c2)CCO1 (stereo not shown) [Example 22, 4-(3-((7-(((1,1,1,3,3,3-Hexafluoropropan-2-yl)oxy)carbonyl)-2,7-diazaspiro[3.5]nonan-2-yl)methyl)-5-(trifluoromethyl)phenyl)-2-methylmorpholine-2-carboxylic acid]
– | ### (### is ≥75%) | ### (### is ≥75%) | * * * | ### (### is ≥75%) | – | – | CC1(OCc2cc(CN3CCC(C(=O)O)CC3)cc(C(F)(F)F)c2)CCN(C(=O)OC(C(F)(F)F)C(F)(F)F)CC1 [Example 25, 1-(3-(((1-(((1,1,1,3,3,3-Hexafluoropropan-2-yl)oxy)carbonyl)-4-methylpiperidin-4-yl)oxy)methyl)-5-(trifluoromethyl)benzyl)piperidine-4-carboxylic acid]
– | ### (### is ≥75%) | # (# is ≤25%) | – | ### (### is ≥75%) | * * * | – | O=C(O)C1CCN(Cc2cc(Cl)cc(C(=O)N3CCCC34CCN(C(=O)OC(C(F)(F)F)C(F)(F)F)CC4)c2)CC1 [Example 11, 1-(3-Chloro-5-(8-(((1,1,1,3,3,3-hexafluoropropan-2-yl)oxy)carbonyl)-1,8-diazaspiro[4.5]decane-1-carbonyl)benzyl)piperidine-4-carboxylic acid]
### (### is ≥75%) | ### (### is ≥75%) | # (# is ≤25%) | – | – | – | – | O=C(O)CN1CC2(CCN(c3cc(CN4CCCC45CCN(C(=O)OC(C(F)(F)F)C(F)(F)F)CC5)cc(C(F)(F)F)c3)CC2)C1 [Example 158, 2-(7-(3-((8-(((1,1,1,3,3,3-Hexafluoropropan-2-yl)oxy)carbonyl)-1,8-diazaspiro[4.5]decan-1-yl)methyl)-5-(trifluoromethyl)phenyl)-2,7-diazaspiro[3,5]nonan-2-yl)acetic acid]
### (### is ≥75%) | ### (### is ≥75%) | # (# is ≤25%) | – | – | – | – | O=C(O)CN1CC2CN(c3cc(C(F)(F)F)ccc3CN3CCCC34CCN(C(=O)OC(C(F)(F)F)C(F)(F)F)CC4)CC2C1 (stereo not shown) [Example 155]
### (### is ≥75%) | ### (### is ≥75%) | # (# is ≤25%) | – | – | – | – | O=C(O)C1CCN(c2c(Cl)cccc2CN2CCC3(CC2)CCN(C(=O)OC(C(F)(F)F)C(F)(F)F)C3)CC1 [Example 218, l-(2-Chloro-6-{(2-(((1,1,1,3,3,3-hexafluoropropan-2-yl)oxy)carbonyl)-2,8-diazaspiro[4.5]decan-8-yl)methyl)phenyl)piperidine-4-carboxylic acid]
– | ### (### is ≥75%) | # (# is ≤25%) | – | ### (### is ≥75%) | – | – | CN(Cc1ccc(C(F)(F)F)cc1OCC(=O)O)C1(C)CCN(C(=O)OC(C(F)(F)F)C(F)(F)F)CC1 [Example 136, 2-(2-(((1-(((1,1,1,3,3,3-Hexafluoropropan-2-yl)oxy)carbonyl)-4-methylpiperidin-4-yl)(methyl)amino)methyl)-5-(trifluoromethyl)phenoxy)acetic acid]
### (### is ≥75%) | ### (### is ≥75%) | ### (### is ≥75%) | – | – | – | – | O=C(OC(C(F)(F)F)C(F)(F)F)N1CCC2(CC1)CCN(C(=O)c1cc(Cl)cc(C(F)(F)F)c1)C2 [Example 110, 1,1,1,3,3,3-Hexafluoropropan-2-yl 2-(3-chloro-5-(trifluoromethyl)benzoyl)-2,8-diazaspiro[4.5]decane-8-carboxylate]
### (### is ≥75%) | ### (### is ≥75%) | ### (### is ≥75%) | * * * | – | – | – | CN(Cc1ccc(C(F)(F)F)cc1N1CCC(C(=O)O)CC1)C1(C)CCN(C(=O)OC(C(F)(F)F)C(F)(F)F)CC1 [Example 14, 1-(2-(((1-(((1,1,1,3,3,3-Hexafluoropropan-2-yl)oxy)carbonyl)-4-methylpiperidin-4-yl)(methyl)amino)methyl)-5-(trifluoromethyl)phenyl)piperidine-4-carboxylic acid]
## (## is between 25 and 75%) | ### (### is ≥75%) | ### (### is ≥75%) | – | – | – | – | O=C(O)CN1CC2CC1CN2c1cc(CN2CC3(CCN(C(=O)OC(C(F)(F)F)C(F)(F)F)CC3)C2)cc(C(F)(F)F)c1 (stereo not shown) [Example 129, 2-(5-{3-[(7-{[(U,l,3,3,3-Hexafluoropropan-2-yl)oxy]carbonyl}-2,7-diazaspiro[3.5]nonan-2-yl)methyl]-5-(trifluoromethyl)phenyl}-2,5-diazabicyclo[2.2.1]heptan-2-yl)acetic acid]
### (### is ≥75%) | ### (### is ≥75%) | ## (## is between 25 and 75%) | – | – | – | – | O=C(O)C1CCN(c2cc(S(F)(F)(F)(F)F)ccc2CN2CCC3(CC2)CCN(C(=O)OC(C(F)(F)F)C(F)(F)F)C3)CC1 [Example 222, l-(2-((2-(((1,1,1,3,3,3-Hexafluoropropan-2-yl)oxy)carbonyl)-2,8-diazaspiro[4.5]decan-8-yl)methyl)-5-(pentafluoro-16-sulfaneyl)phenyl)piperidine-4-carboxylic acid]
